Measurements as given in US5750530A, “Pharmaceutical diketopiperazine compounds” (Xenova Limited, priority 1994, dated 1998).
Counter-ions that a name gives are not always drawn. Like-named read-outs stand apart in the source and are kept apart here.

Target: PAI-1 (Homo sapiens, UniProt P05121)
Assay: biochemical
Format: biochemical
Protocol: The present compounds have been tested in a PAI functional assay. In this assay, a compound is incubated with PAI-1 prior to addition to the tPA assay system. Inhibition of PAI-1 results in the production of plasmin from plasminogen. In turn, plasmin cleaves the chromogenic substrate S2251 (Kabi Vitrum) producing pNA (p-nitroaniline) which is detected spectrophotometrically at 405 nm (K. Nilsson et al, Fibrinolysis (1987) 1, 163-168).
The present compounds were tested in a PAI chromogenic substrate assay. In the assay (K. Nilsson, Fibrinolysis (1987) 1, 163-168) each compound was incubated with PAI-1 prior to addition to the tPA assay system. […] In turn, the plasmin cleaved the chromogenic substrate S2251 (Kabi-Vitrum) producing pNA (p-nitroaniline) which was detected spectrophotometrically at 405 nm.
The degrees of inhibition observed in the chromogenic substrate assay at various concentrations, or the IC50 values, for each compound are presented in Table 1.

[1] = PAI chromogenic substrate assay

PAI-1, sequence (P05121 24-402): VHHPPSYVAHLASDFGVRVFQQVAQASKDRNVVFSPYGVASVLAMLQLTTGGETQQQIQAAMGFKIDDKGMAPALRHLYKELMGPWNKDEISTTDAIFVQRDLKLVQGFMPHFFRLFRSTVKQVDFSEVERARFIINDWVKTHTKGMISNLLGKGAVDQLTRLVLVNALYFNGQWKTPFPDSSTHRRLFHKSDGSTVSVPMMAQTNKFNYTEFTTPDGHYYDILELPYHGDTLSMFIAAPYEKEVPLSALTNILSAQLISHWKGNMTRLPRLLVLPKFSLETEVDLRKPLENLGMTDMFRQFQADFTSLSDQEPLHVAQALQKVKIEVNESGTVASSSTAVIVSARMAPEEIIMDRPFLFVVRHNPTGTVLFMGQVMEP

SMILES	% Inhibition (5 μm)	% Inhibition (20 μm)	% Inhibition (100 μm)	IC50 [1]	IC50
CN(C)CCSc1ccc(/C=c2\[nH]c(=O)/c(=C/c3ccccc3)[nH]c2=O)cc1 [Compound 5128.HCl, (3Z,6Z)-6-Benzylidene-3-(4-(2-dimethylaminoethylthio)benzylidene)-2,5-piperazinedione]	5%	71%	69%	10 µM	
CN(C)CCSc1ccc(/C=c2\[nH]c(=O)/c(=C/c3ccoc3)[nH]c2=O)cc1 [Compound 5129.HCl, (3Z,6Z)-6-(4-(2-Dimethylaminoethylthio)benzylidene)-3-(3-furylmethylene)-2,5-piperazinedione]	51%	68%	50%	4.5 µM	
CN(C)CCSc1ccc(/C=c2\[nH]c(=O)/c(=C/c3ccccc3)[nH]c2=O)s1 [Compound 5131.HCl, (3Z,6Z)-6-Benzylidene-3-(5-(2-dimethylaminoethylthio)-2-thienyl)methylene-2,5-piperazinedione]		65%	56%	5 µM	
CN(C)CCSc1ccc(/C=c2\[nH]c(=O)/c(=C/c3ccsc3)[nH]c2=O)cc1 [Compound 5133.HCl, (3Z,6Z)-6-(4-(2-Dimethylaminoethylthio)benzylidene)-3-(3-thienylmethylene)-2,5-piperazinedione]		66%	24%	3 µM	
CN(C)CC[S+]([O-])c1ccc(/C=c2\[nH]c(=O)/c(=C/c3ccccc3)[nH]c2=O)cc1 (stereo not shown) [Compound 5141.HCl, (3Z,6Z)-6-Benzylidene-3-(4-(2-dimethylaminoethylsulphinyl)benzylidene)-2,5-piperazinedione]	0%	6%	34%		
CN(C)CCSc1ccc(/C=c2\[nH]c(=O)/c(=C/c3ccsc3)[nH]c2=O)s1 [Compound 5257, (3Z,6Z)-3-(5-(2-Dimethylaminoethylthio)-2-thienyl)methylene-6-(3-thienyl)methylene-2,5-piperazinedione]		77%	41%	7 µM	
CN(C)CCSc1ccc(/C=c2\[nH]c(=O)/c(=C/c3ccc4c(c3)OCO4)[nH]c2=O)s1 [Compound 5279, (3Z,6Z)-3-(5-(2-Dimethylaminoethylthio)-2-thienyl)methylene-6-(3,4-methylenedioxybenzylidene)-2,5-piperazinedione]		64%	68%		20 µM
CN(C)CCSc1ccc(/C=c2\[nH]c(=O)/c(=C/c3ccc4c(c3)OCO4)[nH]c2=O)s1 [Compound 5279.HCl, (3Z,6Z)-3-(5-(2-Dimethylaminoethylthio)-2-thienyl)methylene-6-(3,4-methylenedioxybenzylidene)-2,5-piperazinedione]				13 µM	
CN(C)CCSc1ccc(/C=c2\[nH]c(=O)/c(=C/c3ccc(N(C)C)cc3)[nH]c2=O)s1 [Compound 5280, (3Z,6Z)-6-(4-Dimethylaminobenzylidene)-3-(5-(2-dimethylaminoethylthio)-2-thienyl)methylene-2,5-piperazinedione]		82%	99%	20 µM	
CN(C)CCSc1ccc(/C=c2\[nH]c(=O)/c(=C/c3ccc4ccccc4c3)[nH]c2=O)cc1 [Compound 5284, (3Z,6Z)-6-(4-(2-Dimethylaminoethylthio)benzylidene)-3-(2-naphthylmethylene)-2,5-piperazinedione]				3 µM	
CN(C)CCSc1ccc(/C=c2\[nH]c(=O)/c(=C/c3ccc4ccccc4c3)[nH]c2=O)s1 [Compound 5286, (3Z,6Z)-3-(5-(2-Dimethylaminoethylthio)-2-thienyl)methylene-6-(2-naphthyl)methylene-2,5-piperazinedione]		87%	98%	8 µM	
CN(C)CCSc1ccc(/C=c2\[nH]c(=O)/c(=C/c3ccc4ccccc4c3)[nH]c2=O)s1 [Compound 5286.HCl, (3Z,6Z)-3-(5-(2-Dimethylaminoethylthio)-2-thienyl)methylene-6-(2-naphthyl)methylene-2,5-piperazinedione]		77%	98%	14 µM	
CN(C)CCSc1ccc(/C=c2\[nH]c(=O)/c(=C/c3cccc(Cl)c3)[nH]c2=O)s1 [Compound 5291, (3Z,6Z)-6-(3-Chlorobenzylidene)-3-(5-(2-dimethylaminoethylthio)-2-thienyl)methylene-2,5-piperazinedione]				20 µM	
CN(C)CCSc1ccc(/C=c2\[nH]c(=O)/c(=C/c3cccc(Cl)c3)[nH]c2=O)cc1 [Compound 5292, (3Z,6Z)-3-(3-Chlorobenzylidene)-6-(4-(2-dimethylaminoethylthio)benzylidene)-2,5-piperazinedione]				3 µM	
CN(C)CCSc1ccc(/C=c2\[nH]c(=O)/c(=C/c3cccc(Cl)c3)[nH]c2=O)cc1 [Compound 5292.HCl, (3Z,6Z)-3-(3-Chlorobenzylidene)-6-(4-(2-dimethylaminoethylthio)benzylidene)-2,5-piperazinedione]				2 µM	
CN(C)CCSc1ccc(/C=c2\[nH]c(=O)/c(=C/c3ccc(C(F)(F)F)cc3)[nH]c2=O)s1 [Compound 5293, (3Z,6Z)-3-(5-(2-Dimethylaminoethylthio)-2-thienyl)methylene-6-(4-trifluoromethylbenzylidene)-2,5-piperazinedione]				20 µM	
CN(C)CCSc1ccc(/C=c2\[nH]c(=O)/c(=C/c3ccc(C(F)(F)F)cc3)[nH]c2=O)cc1 [Compound 5294, (3Z,6Z)-3-(4-(2-Dimethylaminoethylthio)benzylidene)-6-(4-trifluoromethylbenzylidene)-2,5-piperazinedione]				2.5 µM	
CN(C)CCSc1ccc(/C=c2\[nH]c(=O)/c(=C/c3ccc(C(F)(F)F)cc3)[nH]c2=O)cc1 [Compound 5294.HCl, (3Z,6Z)-3-(4-(2-Dimethylaminoethylthio)benzylidene)-6-(4-trifluoromethylbenzylidene)-2,5-piperazinedione]				10 µM	
CC(=O)Nc1ccc(/C=c2\[nH]c(=O)/c(=C/c3ccc(SCCN(C)C)s3)[nH]c2=O)cc1 [Compound 5300, (3Z,6Z)-6-(4-Acetamidobenzylidene)-3-(5-(2-dimethylaminoethylthio)-2-thienyl)methylene-2,5-piperazinedione]		64%	70%	25 µM	
CC(=O)Nc1ccc(/C=c2\[nH]c(=O)/c(=C/c3ccc(SCCN(C)C)s3)[nH]c2=O)cc1 [Compound 5300.HCl, (3Z,6Z)-6-(4-Acetamidobenzylidene)-3-(5-(2-dimethylaminoethylthio)-2-thienyl)methylene-2,5-piperazinedione]	10%	41%	26%		
CN(C)CCSc1ccc(/C=c2\[nH]c(=O)/c(=C/c3ccc4c(c3)Cc3ccccc3-4)[nH]c2=O)s1 [Compound 5301, (3Z,6Z)-3-(5-(2-Dimethylaminoethylthio)-2-thienyl)methylene-6-(2-fluorenylmethylene)-2,5-piperazinedione]		65%	107%	20 µM	
